Biological target: T1, TGS1 (Mycobacterium tuberculosis, UniProt P9WKC9)
T1 construct: made in house; host or cells: E. coli (total cell lysate, not purified)
T1 sequence (P9WKC9 1-463): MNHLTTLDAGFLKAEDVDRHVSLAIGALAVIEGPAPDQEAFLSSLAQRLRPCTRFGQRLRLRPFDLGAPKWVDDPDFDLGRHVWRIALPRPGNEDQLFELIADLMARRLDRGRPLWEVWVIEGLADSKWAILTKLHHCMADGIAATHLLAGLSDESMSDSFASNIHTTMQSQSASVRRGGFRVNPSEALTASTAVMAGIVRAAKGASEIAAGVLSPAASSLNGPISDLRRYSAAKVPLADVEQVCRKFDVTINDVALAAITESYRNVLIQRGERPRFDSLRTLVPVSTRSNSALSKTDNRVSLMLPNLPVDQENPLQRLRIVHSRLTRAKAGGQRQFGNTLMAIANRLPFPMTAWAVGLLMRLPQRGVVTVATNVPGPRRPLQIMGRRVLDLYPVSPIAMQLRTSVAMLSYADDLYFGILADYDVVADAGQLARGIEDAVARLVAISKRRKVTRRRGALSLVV
Type: biochemical, M. tuberculosis
Conditions: acyl-CoA substrate, pH 6.5, 37° C., 2 h; for Km: from linear double-reciprocal plots

Structure (SMILES) | Vmax | Km
CCCCCCCC/C=C\CCCCCCCC(=O)SCCNC(=O)CCNC(=O)[C@H](O)C(C)(C)COP(=O)(O)OP(=O)(O)OC[C@H]1O[C@@H](n2cnc3c(N)ncnc32)[C@H](O)[C@@H]1OP(=O)(O)O [C18:1-CoA, oleoyl (C18:1)-CoA] | 1.1 nmol/mg/min | 540 µM
CCCCCCCCCCCCCCCCCCCCCCCCCC(=O)SCCNC(=O)CCNC(=O)[C@H](O)C(C)(C)COP(=O)(O)OP(=O)(O)OC[C@H]1O[C@@H](n2cnc3c(N)ncnc32)[C@H](O)[C@@H]1OP(=O)(O)O [C26:0-CoA, hexacosanoyl (C26:0)-CoA] | 2.4 nmol/mg/min | 306 µM
